The source of these data is patent US4318916A, “Antibiotic PS-5 and derivatives having β-lactamase inhibitory activity and production thereof” (Sanraku-Ocean Co., Ltd., priority 1977, dated 1982).

Values after ≈ are worked out from the molar mass of the structure shown. Structures can show the parent of a compound that is named as a salt.

As usually defined, the MIC is the least concentration at which growth counts as inhibited.

Data set [1] concerns Alcaligenes faecalis B-326. Briefly: MIC by broth dilution (Table 13). In kind it is cell-based. As to conditions: Alcaligenes faecalis, B326, 20 h. The protocol:
(§1) The MIC (minimum inhibitory concentration) values of the compound were determined on various pathogenic microorganisms including several resistant strains, utilizing the broth dilution method in BRAIN HEART INFUSION BROTH `Eiken` (EIKEN CHEMICAL CO., LTD.).
(§2) The results were read after incubation at 35° C. for 20 hours. The minimum inhibitory concentration (MIC) values means the lowest concentration unit of the tritylation product of the antibiotic PS-5 was no growth of the corresponding microorganism was observed under the above described conditions. As the control antibiotics,the solutions of ampicillin and cephaloridine were prepared in BRAIN HEART INFUSION BROTH `Eiken` (pH 7.0) at a concentration of 100 μg/ml and treated same as the test compound of the present invention.
A general note: Dilution methods test growth across graded concentrations, often in twofold steps.

The test system of data set [2] is Citrobacter freundii E-9. Briefly: MIC by broth dilution (Table 13). As to conditions: E9, 20 h; Citrobacter freundii E-9; read-out: MIC. In kind it is cell-based. The protocol:
as §1, §2

The test system of data set [3] is Diplococcus pneumoniae Type III. In words: MIC by broth dilution (Table 13). In kind it is cell-based. As to conditions: Streptococcus pneumoniae, 20 h; Diplococcus pneumoniae Type III; read-out: MIC. The protocol:
as §1, §2

The subject of data set [4] is Enterobacter aerogenes E-19. In words: MIC by broth dilution (Table 13). The settings on record: Klebsiella aerogenes, E19, 20 h. In kind it is cell-based. The protocol:
as §1, §2

The subject of data set [5] is Enterobacter cloacae E-16. In words: MIC by broth dilution (Table 13). In kind it is cell-based. As to conditions: E16, 20 h. Here is the method: as §1, §2
The subject of data set [6] is Enterobacter sp. E-8. In words: MIC by broth dilution (Table 13). In kind it is cell-based. As to conditions: SP.E8, 20 h; Enterobacter sp. E-8; read-out: MIC. The protocol: as §1, §2
Data set [7] has as its system Escherichia coli K12. In words: MIC by broth dilution (Table 13). In kind it is cell-based. As to conditions: 20 h. Here is the method: as §1, §2
Data set [8] concerns Klebsiella pneumoniae K-2. Briefly: MIC by broth dilution (Table 13). As to conditions: K2, 20 h; Klebsiella pneumoniae K-2; read-out: MIC. In kind it is cell-based. Here is the method:
as §1, §2

Data set [9] has as its system Proteus mirabilis P-6. Briefly: MIC by broth dilution (Table 13). In kind it is cell-based. As to conditions: Proteus mirabilis, P6, 20 h. Here is the method:
as §1, §2

For data set [10], the system named is Proteus rettgeri P-7. Briefly: MIC by broth dilution (Table 13). The settings on record: Providencia rettgeri, P7, 20 h; Proteus rettgeri P-7; read-out: MIC. In kind it is cell-based. The protocol:
as §1, §2

Data set [11] has as its system Proteus vulgaris P-5. In words: MIC by broth dilution (Table 13). The settings on record: P5, 20 h; Proteus vulgaris P-5; read-out: MIC. In kind it is cell-based. Here is the method:
as §1, §2

Data set [12] has as its system Pseudomonas aeruginosa P-1. Briefly: MIC by broth dilution (Table 13). In kind it is cell-based. The settings on record: P1, 20 h; Pseudomonas aeruginosa P-1; read-out: MIC. Here is the method: as §1, §2
The test system of data set [13] is Sarcina lutea S-19. Briefly: MIC by broth dilution (Table 13). In kind it is cell-based. As to conditions: Micrococcus luteus, S19, 20 h; Sarcina lutea S-19; read-out: MIC. Here is the method:
as §1, §2

Data set [14] concerns Serratia marcescens S-18. Briefly: MIC by broth dilution (Table 13). In kind it is cell-based. As to conditions: S18, 20 h. Here is the method: as §1, §2
Data set [15] concerns Staphylococcus aureus FDA 209p. In words: MIC by broth dilution (Table 13). In kind it is cell-based. As to conditions: FDA209P, 20 h; Staphylococcus aureus FDA 209p; read-out: MIC. The protocol:
as §1, §2

In data set [16] the test system is Staphylococcus aureus Smith. Briefly: MIC by broth dilution (Table 13). In kind it is cell-based. The settings on record: 20 h; Staphylococcus aureus Smith; read-out: MIC. The protocol:
as §1, §2

Data set [17] relates to Streptococcus pyogenes NY-5. In words: MIC by broth dilution (Table 13). In kind it is cell-based. The settings on record: NY5, 20 h; Streptococcus pyogenes NY-5; read-out: MIC. Here is the method:
as §1, §2

In data set [18] the test system is Proteus vulgaris P-5. In words: Potentiation disc assay with cephaloridine (Table 10). In kind it is cell-based. As to conditions: Proteus vulgaris P-5; for Inhibition zone With CER: 50 μg/ml cephaloridine in agar. Here is the method: (A) Ten milliliters of molten nutrient agar containing 50 μg/ml of penicillin G or cephaloridine, 0.8% of Kyokuto Nutrient Broth Powder and 1.0% of Difco Bacto-Agar (pH 7.0) were seeded with the beta-lactam-resistant, beta-lactamase-producing microorganisms indicated in Tables 9 and 10, and poured in a 9-cm Petri dish to provide the bio-assay agar plate. On this assay plate, 8-mm pulp discs containing 25 μl each of antibiotic PS-5 solutions at the indicated concentrations were placed and incubated at 35° C. for 18 hours before reading the inhibition zones. The control assay plate was similarly prepared without penicillin G nor cephaloridine. As reference antibiotics, penicillin G, ampicillin, oxacillin and cefazolin were disc-assayed under the same conditions.

Data set [19] has as its system Staphylococcus aureus Smith. In words: Therapeutic activity of antibiotic PS-5 sodium salt in infected mice. As to conditions: sc; male ddy mice infected i.p. with 5×10^5 cells/mouse Staphylococcus aureus Smith; subcutaneously injected soon after infection; read-out: 50% curative dose. In kind it is in vivo. The text has this: The therapeutic activity of the antibiotic PS-5 sodium salt was studied by treating mice intraperitoneally infected with 5×10^5 cells/mouse of Staphylococcus aureus Smith. Soon after the infection, an aqueous solution of the antibiotic PS-5 sodium salt was subcutaneously injected.

The subject of data set [20] is male ddy mice. In kind it is in vivo. As to conditions: 500 mg/kg intraperitoneally. Here is the method: An aqueous solution of the antibiotic PS-5 sodium salt was intraperitoneally administered to male ddy mice (Shizuoka) at the dose of 500 mg/kg.
A short description of data set [21]: Solubility of antibiotic PS-5. In kind it is physicochemical. As to conditions: sodium salt preparation of Example 9.
For data set [22], the system named is Comamonas terrigena B-996. Briefly: Disc bio-assay of antimicrobial activity, cephaloridine equivalent units. In kind it is cell-based. As to conditions: Comamonas-cephaloridine units per mg of the final purified preparation. Here is the method:
The overnight culture of Comamonas terrigena B-996 on a nutrient agar slant was suspended in nutrient broth so as to give an optical cell density of 0.040 at 610 nm.
The seed suspension was added in a 1% amount to a molten agar medium containing 0.8% Kyokuto Nutrient Broth Powder (Kyokuto Pharmaceutical Industries Co.) and 1.0% Bacto-Agar (Difco Laboratories). Seven milliliters of the seeded molten agar medium were distributed in a Petri dish (9 cm in diameter) and solidified). This is defined as a Comamonas assay plate.
An 8 mm pulp disc was usually soaked with a sample solution to be assayed, left on a clean sheet of filter paper for a sufficient time to remove the excess solution and then transferred onto an assay plate. After incubation at 35° C. for 20 hours, the diameter of the observed inhibition zone was measured and compared with standard solutions of cephaloridine. The antimicrobial activity of the antibiotic PS-5 and related compounds is expressed as cephaloridine equivalent units/ml.
As well known to those skilled in the art, the assay standard curve varies to some extent, depending on the species of the test microorganisms. […]

Regarding `CC1(C)S[C@@H]2[C@H](NC(=O)[C@H](N)c3ccccc3)C(=O)N2[C@H]1C(=O)O` [Ampicillin, ampicillin], the MIC in data set [1] was 6.25 µg/mL (≈ 17.9 µM); in data set [2] it was over 100 µg/mL; in data set [3] it was 0.04 µg/mL (≈ 0.114 µM); in data set [4], over 100 µg/mL; in data set [5], over 100 µg/mL; in data set [6], over 100 µg/mL. Also, the MIC in data set [7] was 3.13 µg/mL (≈ 8.96 µM); in [8], over 100 µg/mL; in [9], 3.13 µg/mL (≈ 8.96 µM); in [10], 50 µg/mL (≈ 143 µM); in data set [11] it was over 100 µg/mL; in data set [12], 50 µg/mL (≈ 143 µM). In addition, the MIC turned out to be 0.05 µg/mL (≈ 0.143 µM) in data set [13]; 50 µg/mL (≈ 143 µM) in data set [14]; 0.2 µg/mL (≈ 0.572 µM) in [15]; 0.2 µg/mL (≈ 0.572 µM) in [16]; 0.02 µg/mL (≈ 0.0572 µM) in data set [17]. The zone of inhibition at 625 µg/mL in data set [18] (P5, 18 h, reference antibiotic 625 μg/ml, read-out: Inhibition zone Without CER) is 0 mm. In data set [18] (P5, 18 h, reference antibiotic 2,500 μg/ml, read-out: Inhibition zone Without CER), the zone of inhibition at 2500 µg/mL came to 0 mm. Besides, the zone of inhibition at 10000 µg/mL in data set [18] (P5, 18 h, reference antibiotic 10,000 μg/ml, read-out: Inhibition zone Without CER) was 14.7 mm. Further, in data set [18] (disc assay, Table 10), the “Potentiation of the antimicrobial activity of cephaloridine” value is recorded as “could not increase the antimicrobial activity of cephaloridine”. Also, the “Inhibition zone With CER” value in data set [18] (reference antibiotic 625 μg/ml) is given as 0 mm; in data set [18] (reference antibiotic 2,500 μg/ml) it was 0 mm; in data set [18] (reference antibiotic 10,000 μg/ml), 12.9 mm.

Turning to `CCC1C(=O)N2C(C(=O)O)=C(SCCNC(C)=O)CC12` (centres unmarked) [antibiotic PS-5 sodium salt], the ED50 in data set [19] is 2.45 mg/kg. Also, the “Deaths after intraperitoneal administration” value in data set [20] was “No dead was recorded”. Further, in [21], the Solubility in acetone result is “substantially insoluble” and the Solubility in water result was “Soluble”. Moreover, the Specific activity in data set [22] is 21,000 CCU/mg.
